According to ChEMBL document CHEMBL5620351, “Advancing beyond reverse transcriptase inhibitors: The new era of hepatitis B polymerase inhibitors” (Eur J Med Chem, 2023):
Values belong to the compound of their own block, whether it stands above or below them.

How the values were obtained:
[1] = system: Hepatitis B virus; assay: Antiviral activity against HBV infected in human HepDES19 cells assessed as reduction in HBV replication; type: functional, organism-based
[2] = Cytotoxicity against human HB611 cells assessed as reduction in cell viability incubated for 6 to 9 days by celltiter-glo assay; type: functional; settings: time 6-9 day
[3] = Inhibition of HBV RNA polymerase; design: species or system Hepatitis B virus
[4] = system: Hepatitis B virus; assay: Antiviral activity against HBV transfected in human HB611 cells assessed as reduction of HBV DNA replication incubated for 5 days by q-PCR analysis; type: functional, organism-based; settings: HB611, 120 h
[5] = system: Hepatitis B virus; assay: Antiviral activity against HBV transfected in human HB611 cells; type: functional, organism-based
[6] = Cytotoxicity against human HepG2-hNTCP cells assessed as reduction in cell viability incubated for 3 days by celltiter glo assay; type: functional; settings: 72 h, time 3 day
[7] = system: Hepatitis B virus; assay: Antiviral activity against HBV infected in human HepG2-hNTCP cells assessed as reduction in HBV DNA replication by qRT-PCR analysis; type: functional, organism-based
[8] = Cytotoxicity against human HB611 cells assessed as reduction in cell viability incubated for 3 days by celltiter glo assay; type: functional; settings: HB611, 72 h, time 3 day
[9] = system: Hepatitis B virus; assay: Antiviral activity against HBV infected in human HepG2 2.2.15 cells assessed as reduction on HBsAg level incubated for 5 days; type: functional; design: concentration or dose not given beside the values; settings: time 5 day
[10] = system: Hepatitis B virus; assay: Antiviral activity against HBV infected in human HepDES19 cells assessed as inhibition of HBV replication by qPCR analysis; type: functional, organism-based
[11] = Cytotoxicity against human primary hepatocytes assessed as cell viability incubated for 72 hrs by MTS assay; type: toxicity, cell-based, Hepatocyte
[12] = system: Hepatitis B virus; assay: Antiviral activity against HBV infected in human HepG2-NTCP12 cells assessed as inhibition of extracellular HBV DNA incubated for 2 weeks by SYBR green dye based quantitative PCR analysis; type: functional, organism-based; settings: HepG2-NTCP12, 336 h
[13] = Cytotoxicity against human primary hepatocytes assessed as cell viability incubated for 72 hrs by LDH release assay; type: toxicity, cell-based, Hepatocyte
[14] = Cytotoxicity against human HepDES19 cells assessed as reduction in cell viability incubated for 1 hr by MTS assay; type: functional
[15] = Cytotoxicity against human HEK293 cells assessed as reduction in cell viability incubated for 1 hr by MTS assay; type: toxicity, cell-based
[16] = system: Hepatitis B virus; assay: Antiviral activity against HBV infected in human HepDES19 cells assessed as inhibition of extracellular HBV DNA by qPCR analysis; type: functional, organism-based
[17] = system: Hepatitis B virus; assay: Antiviral activity against adefovir-resistant HBV infected in human Huh-7 cells assessed as reduction in HBV DNA production by real-time qPCR analysis; type: functional, organism-based
[18] = system: Hepatitis B virus; assay: Antiviral activity against HBV C2 infected in human Huh-7 cells assessed as reduction in HBV DNA production by real-time qPCR analysis; type: functional, organism-based; settings: C2, Huh-7
[19] = system: Hepatitis B virus; assay: Antiviral activity against HBV D1 infected in human HepG2.2.15 cells assessed as reduction in HBV DNA production by real-time qPCR analysis; type: functional, organism-based; settings: D1, HepG2.2.15
[20] = system: Huh-7; assay: Cytotoxicity against human Huh-7 cells assessed as reduction in cell viability by MTT assay; type: functional
[21] = system: Hepatitis B virus; assay: Antiviral activity against entecavir-resistant HBV infected in human Huh-7 cells assessed as reduction in HBV DNA production by real-time qPCR analysis; type: functional, organism-based
[22] = system: HepG2; assay: Cytotoxicity against human HepG2 cells assessed as cell viability incubated for 12 days by WST-1 assay; type: functional; settings: HepG2, 288 h, time 12 day
[23] = system: Hepatitis B virus; assay: Antiviral activity against HBV infected in human HepG2.2.15.7 cells assessed as reduction in HBV DNA replication by TR-PCR analysis; type: functional, organism-based
[24] = Cytotoxicity against human HepAD38 cells assessed as reduction in cell viability incubated for 4 days by XTT assay; type: functional; settings: HePAD38, 96 h, time 4 day
[25] = system: Hepatitis B virus; assay: Antiviral activity against HBV infected in human HePAD38 cells assessed as reduction in HBV replication by qPCR analysis; type: functional, organism-based
[26] = Cytotoxicity against human LX2 cells assessed as reduction in cell viability incubated for 1 hr by MTS assay; type: toxicity, cell-based; settings: LX-2 cells

- EC50 [1]: 0.11 µM
Structure (SMILES): CC(=NOCc1ccccc1)c1c(C)cc(=O)n(O)c1O

Structure (SMILES): NC(Cc1cc(O)c(O)cc1O)C(=O)O (stereo unspecified)
- CC50 [2]: 66 µM
- IC50 [3]: 6.6 µM
- IC50 [4]: 21 µM
- EC50 [5]: 16.1 µM

- IC50 [7]: 0.27 µM
Structure (SMILES): Cc1ccc(C(=O)Nc2ccc(S(=O)(=O)O)c3cc(S(=O)(=O)O)cc(S(=O)(=O)O)c23)cc1NC(=O)c1cccc(NC(=O)Nc2cccc(C(=O)Nc3cc(C(=O)Nc4ccc(S(=O)(=O)O)c5cc(S(=O)(=O)O)cc(S(=O)(=O)O)c45)ccc3C)c2)c1 [SURAMIN]
- CC50 [6]: 200 µM
- CC50 [8]: 168 µM

Structure (SMILES): CCCCCCCCCCCC1=C(O)C(=O)C=C(O)C1=O [EMBELIN]
- Activity [9]: 62%

- EC50 [1]: 0.11 µM
Structure (SMILES): COc1ccccc1CON=C(C)c1c(C)cc(=O)n(O)c1O

- EC50 [1]: 0.11 µM
Structure (SMILES): CC(=NOCc1ccc(F)cc1)c1c(C)cc(=O)n(O)c1O

- EC50 [10]: 0.69 µM
Structure (SMILES): O=C(NCc1ccc(F)cc1)C1C(=O)N(O)C(=O)c2cc(Cl)ccc21 (stereo unspecified)

- EC50 [12]: 0.049 µM
Structure (SMILES): CC(=O)c1cc(O)c(=O)c(O)cc1C
- CC50 at 72 h [11]: > 100 µM
- CC50 at 72 h [13]: > 100 µM

- EC50 [1]: 0.11 µM
Structure (SMILES): COc1ccc(CON=C(C)c2c(C)cc(=O)n(O)c2O)cc1

Structure (SMILES): O=c1ccc2cc3ccoc3cc2o1 [PSORALEN]
- Activity [9]: 62%

- EC50 [16]: 0.5 µM
Structure (SMILES): COC(=O)c1c2c(cc(O)c(=O)c1O)COC2=O
- CC50 [14]: > 77 µM
- CC50 at 1 h [15]: > 100 µM

- EC50 [12]: 0.049 µM
Structure (SMILES): Cc1c(O)c2cc(Br)cnc2n(O)c1=O
- CC50 at 72 h [11]: > 100 µM
- CC50 at 72 h [13]: > 100 µM

- EC50 [1]: 0.11 µM
Structure (SMILES): CC(=NOCc1ccc(C)cc1)c1c(C)cc(=O)n(O)c1O

Structure (SMILES): N#C[C@]1(CO)/C(=C\F)[C@@H](n2cnc3c(=O)[nH]c(N)nc32)C[C@@H]1O
- IC50 [17]: 14.1 µM
- IC50 [18]: 0.7 µM
- IC50 [19]: 1.8 µM
- CC50 [20]: 169 µM
- IC50 [21]: 77.5 µM

Structure (SMILES): O=C(/C=C/c1ccc(O)c(O)c1/C=C/c1ccc(O)c(O)c1)O[C@H](Cc1ccc(O)c(O)c1)C(=O)O [SALVIANOLIC ACID A]
- CC50 [22]: 86 µM

- EC50 [23]: 96.2 µM
Structure (SMILES): Oc1cc(O)cc(/C=C/c2ccc(O)c(O)c2)c1 [PICEATANNOL]

Structure (SMILES): CC(=O)O[C@H]1C(=O)[C@@]2(C)[C@H]([C@H](OC(=O)c3ccccc3)[C@]3(O)C[C@H](O)C(C)=C1C3(C)C)[C@]1(OC(C)=O)CO[C@@H]1C[C@@H]2O [BACCATIN III]
- Activity [9]: 62%

- EC50 [10]: 0.69 µM
Structure (SMILES): COc1ccc2c(c1)C(=O)N(O)C(=O)C2C(=O)NCc1ccc(F)cc1 (stereo unspecified)

Structure (SMILES): C/C=C(\C)C(=O)O[C@H]1C[C@@H](OC(C)=O)[C@@]2(C(=O)OC)CO[C@H]3[C@@H](O)[C@@](C)([C@]45O[C@@]4(C)[C@H]4C[C@@H]5O[C@@H]5OC=C[C@@]54O)[C@H]4[C@]1(CO[C@]4(O)C(=O)OC)[C@@H]32 [AZADIRACTIN]
- Activity [9]: 62%

Structure (SMILES): O=C(/C=C/c1ccc(O)c(O)c1)OCCc1ccc(O)c(O)c1
- CC50 [22]: 229 µM

- IC50 [25]: 8 µM
Structure (SMILES): COc1ccc(-c2cccc(Nc3cc(=O)n(O)c(=O)[nH]3)c2)cc1
- CC50 [24]: > 100 µM

Structure (SMILES): O=c1c(O)c(-c2ccc(O)c(O)c2)oc2cc(O)cc(O)c12 [QUERCETIN]
- Activity [9]: 62%

- EC50 [10]: 0.69 µM
Structure (SMILES): CCN(CC)C(=O)C1C(=O)N(O)C(=O)c2ccccc21 (stereo unspecified)

- EC50 [16]: 0.6 µM
Structure (SMILES): O=C1OCc2cc(O)c(=O)c(O)cc21
- CC50 [14]: > 100 µM
- CC50 at 1 h [15]: > 100 µM
- CC50 at 1 h [26]: > 100 µM

- EC50 [1]: 2.4 µM
Structure (SMILES): COC(=O)C1C(=O)N(O)C(=O)c2cc(NC(=O)c3ccccc3)ccc21 (stereo unspecified)

- EC50 [1]: 0.11 µM
Structure (SMILES): CC(=NOCc1ccccc1N)c1c(C)cc(=O)n(O)c1O

- EC50 [10]: 0.69 µM
Structure (SMILES): COc1ccc(CNC(=O)C2C(=O)N(O)C(=O)c3cc([N+](=O)[O-])ccc32)cc1 (stereo unspecified)
